Source: patent publication US9415094B2, “Method of reducing side effects associated with administration of tissue plasminogen activator (tPA)” (INSERM (Institut National de la Sante et de la Recherche …, priority 2009, dated 2016)

Legend:
[1] = test system: elastase-treated mice (emphysema); test: Elastase-induced emphysema in mice; format: in vivo; conditions: HDL 75 mg/kg; AAT alone 3.75 mg/kg; i.v., 4 injections
Method: First, large amount of HDL purified from human plasma by ultracentrifugation was pooled in order to work with the same batch of HDL and HDL enriched with AAT. AAT was incubated for 16 hours at 37° C. under gentle agitation. […] A Western-Blot for AAT and apolipoprotein A-I was performed on HDL and HDL loaded with AAT. […] Anti-elastase assay was performed in parallel, corroborating the results obtained by WB. These experiments quantify AAT in enriched HDL. The same amount of free AAT was then injected in a control group. The aim of this experiment is to test whether HDL-AAT prevent more the development of emphysema relative to AAT injected alone. HDL containing naturally AAT are also injected in another group.
45 mice are subjected to intra-tracheal elastase instillation.
The mice were sacrificed 28 day after initial instillation of elastase, and the emphysema was semi-quantified by scoring alveoli destruction (double blind determination by two independent pathologists).

[2] = acute phase of stroke; cited from earlier work
transient filament MCAO = test: Transient filament MCAO (fMCAO) with tPA (Example 9)
Source text: STAIR recommendations have been followed to avoid bias due to experimental design 10. Animal care and experimental protocols were approved by the Animal Ethics Committee of the INSERM-University Paris 7. Male Sprague-Dawley rats (Janvier, France) weighing 300 to 350 g, were anesthetized by isoflurane mixed with air (4% for induction; 1% during surgery), under spontaneous respiration. Two different models of focal cerebral ischemia were used as requested by STAIR recommendations: embolic (eMCAO) and transient filament MCAO (fMCAO). Focal cerebral ischemia was induced by intraluminal occlusion of the middle cerebral artery for 4 hours. eMCAO was induced by injection of a preformed clot at the origin of MCA as already described. Continuous laser Doppler flowmetry (VMS, Moor Instrument) was used to monitor regional cerebral perfusion to ensure the adequacy of filament MCA occlusion (perfusion decreased to <20% of preischemic baselines). […] Saline (2.0 mL/kg body weight) with or without recombinant tPA (10 mg/kg body weight; Actilyse, Boehringer Ingelheim) was administered (10% bolus, 90% continuous infusion) to rats via the right femoral vein. The relatively high dose of tPA was necessary to achieve a fibrinolytic effect in rats similar to that of thrombolytic therapy in humans. Continuous tPA or saline infusion (for 30 min. Harvard Apparatus Infusion Pump) started 4 hours after stroke onset, immediately before recanalization (after withdrawal of the filament in fMCAO), or 4 hours after clot placement in the MCA. After saline or tPA administration, rats were returned to their cages. Body temperature was maintained at 37° C.±0.5 with a heating pad for the duration of surgery. Glycemia, arterial blood pressure and blood gases were also monitored during surgery. […] Computer-based randomization was used to allocate drug regimens to each group. Experiments were blinded and the operator was unaware of group allocation during surgery and outcome assessment.
Seven coronal sections of the brain (2 mm in thickness) were stained with 2% 2,3,5-triphenyltetrazolium chloride (TTC, Sigma-Aldrich) for 20 minutes at room temperature. […] Volume calculation with oedema correction was performed blindly using the following formula: 100× (contralateral hemisphere volume−non infarct ipsilateral hemisphere volume)/contralateral hemisphere volume. […] Ten-micrometer sections were cut from the caudal site of all 7 slices and analyzed before TTC staining. Areas of hemorrhagic transformation from these 7 brain sections were measured using Photoshop software by semi-automatic selection of extravasated erythrocytes.

embolic MCAO = test: Embolic MCAO (eMCAO) with tPA (Example 9)
Source text: STAIR recommendations have been followed to avoid bias due to experimental design 10. Animal care and experimental protocols were approved by the Animal Ethics Committee of the INSERM-University Paris 7. Male Sprague-Dawley rats (Janvier, France) weighing 300 to 350 g, were anesthetized by isoflurane mixed with air (4% for induction; 1% during surgery), under spontaneous respiration. Two different models of focal cerebral ischemia were used as requested by STAIR recommendations: embolic (eMCAO) and transient filament MCAO (fMCAO). Focal cerebral ischemia was induced by intraluminal occlusion of the middle cerebral artery for 4 hours. eMCAO was induced by injection of a preformed clot at the origin of MCA as already described. Continuous laser Doppler flowmetry (VMS, Moor Instrument) was used to monitor regional cerebral perfusion to ensure the adequacy of filament MCA occlusion (perfusion decreased to <20% of preischemic baselines). […] Saline (2.0 mL/kg body weight) with or without recombinant tPA (10 mg/kg body weight; Actilyse, Boehringer Ingelheim) was administered (10% bolus, 90% continuous infusion) to rats via the right femoral vein. The relatively high dose of tPA was necessary to achieve a fibrinolytic effect in rats similar to that of thrombolytic therapy in humans. Continuous tPA or saline infusion (for 30 min. Harvard Apparatus Infusion Pump) started 4 hours after stroke onset, immediately before recanalization (after withdrawal of the filament in fMCAO), or 4 hours after clot placement in the MCA. […] Glycemia, arterial blood pressure and blood gases were also monitored during surgery. […]
Seven coronal sections of the brain (2 mm in thickness) were stained with 2% 2,3,5-triphenyltetrazolium chloride (TTC, Sigma-Aldrich) for 20 minutes at room temperature. […] Ten-micrometer sections were cut from the caudal site of all 7 slices and analyzed before TTC staining. Areas of hemorrhagic transformation from these 7 brain sections were measured using Photoshop software by semi-automatic selection of extravasated erythrocytes.

blood-brain barrier = test: IgG extravasation in filament MCAO model; format: in vivo, Sprague-Dawley rats; conditions: tPA vs saline; combination vs tPA alone
Method: Blood-brain barrier permeability was evaluated in vivo by using fluorescence detection of IgG extravasation in filament MCAO model. At 24 hours after stroke, rats were deeply anesthetized with pentobarbital and transcardially perfused with saline. Brains were removed, cut in 2 mm coronal sections, embedded with OCT and frozen. Ten μm sections (at +0.70 mm posterior to bregma) were prepared. Sections were prepared and incubated overnight at 4° C. with donkey anti-rat IgG antibodies (5 μg/mL, Molecular Probes) labelled with Alexa Fluor® 488. IgG extravasation was quantified semi-automatically with morphometry software (Histolab 6.1.5, Microvision Instruments).

[3] = test system: collagen IV (basal lamina of cerebral microvessels); test: Collagen IV immunoreactivity in cerebral microvessels (filament MCAO); format: in vivo, Sprague-Dawley rats; conditions: 24 hours after stroke; combination relative to tPA alone
Method: Frozen sections were fixed with 3.7% paraformaldehyde and blocked with 10% goat serum. Sections were incubated overnight at 4° C. with a rabbit polyclonal to collagen IV (2 μg/mL, Abcam) for detection of basal lamina of intracerebral vessels. FITC-conjugated Bandeiraea Simplicifolia Lectin I (isolectin B4) (5 μg/mL, Vector Laboratories) was used to visualize endothelial cells. Non-immune rabbit IgG were included in each set of experiments as primary antibody to test the specificity of the signal. We used Alexa-Fluor® 555 as secondary antibodies. Immunostaining was analysed with a fluorescent microscope interfaced with a digital capture system. All immunohistological evaluations were carried out by an observer who was blinded to the treatment. For semi-quantification of the collagen type IV expression, three fields of each territory were acquired using a×10 objective. A threshold of fluorescence intensity, which encompasses positive vessels on the contralateral image, was applied to each corresponding ipsilateral image. IHC analysis was performed in filament MCAO model.

hCMEC/D3 cells = test: In vitro blood-brain barrier model with tPA under OGD; format: cell-based, human
Method: The human brain endothelial cell line hCMEC/D3 kindly provided by Dr. P. O. Couraud. Cells were cultured in complete EBM-2 medium (Endothelial Basal Medium+2.5% of fetal calf serum and supplements containing hydrocortisone and growth factors).
OGD (Oxygen Glucose Deprivation) conditions were obtained by using DMEM medium without glucose (Gibco) versus 1 g/L glucose DMEM for non-OGD conditions. Oxygen deprivation was obtained by using a hypoxia chamber (Billups-Rothenberg) where atmospheric air was replaced by a mix of gas (0% O2, 5% CO2, 95% N2, Air Product). DMEM used for OGD conditions was equilibrated with the same mix.
For permeability experiments, hCMEC/D3 cells were seeded at 5.105 cells/cm^2 on collagen inserts (PCF filters, 0.4 μm pore size, Millicell 24-well plates, Millipore) in complete EBM-2. Cells were grown for 14 days post-confluence before use. Permeability was assessed using fluorescein isothiocyanate (FITC) labelled dextran (70 kDa molecular weight). […] 200 μL from the collecting wells were transferred into a 96-well plate, and the dextran fluorescence was determined on the microplate reader at 485 nm (excitation) and 538 nm (emission). Fluorescence was converted to concentration using a standard curve. The volume cleared was calculated from the ratio of dextran concentration in each sample to the applied concentration (0.385 mg/mL). The endothelial permeability coefficient Pe (cm/min) was calculated by determining the volumes of clearance of dextran with or without cells. The cleared volume was calculated from the […], and plotted against time. PS (permeability surface) was calculated from 1/PS=1/PSe−1/PSf, where PSe is the slope of clearance in the presence of cells and PSf is the slope for a blank insert (cell free)16. […]
For detection of fibronectin in HCMEC/D3 cell culture supernatant, 5 μL of conditioned medium were analyzed by SDS-8% PAGE. […]

| Substance | protective effect on development of emphysema [1] | increase in symptomatic cerebral haemorrhage [2] | edema surrounding ischemic cerebral vessels (transient filament MCAO; compared to HDL+tPA group) | infarct volume (transient filament MCAO; fMCAO, 24 hours, tPA and HDL alone vs saline, combination vs tPA alone) | mortality rate (transient filament MCAO; fMCAO, tPA 10 mg/kg 4 hours after stroke onset, 24 hours) | mortality (transient filament MCAO; fMCAO, tPA and HDL alone vs saline, combination vs tPA alone) | infarct volume (embolic MCAO; 24 hours, tPA and HDL alone vs saline, combination vs tPA alone) | mortality rate (embolic MCAO; tPA 10 mg/kg 4 hours after stroke onset, 24 hours) | mortality (embolic MCAO; tPA and HDL alone vs saline, combination vs tPA alone) | IgG extravasation in the ischemic hemisphere (blood-brain barrier) | number of collagen IV immunoreactive vessels in the infarcted area [3] | VE-cadherin intercellular junction organization (hCMEC/D3 cells; 200 nM tPA and/or 400 μg/mL HDL) | release of soluble fibronectin/fragments in supernatants (hCMEC/D3 cells; 200 nM tPA and/or 400 μg/mL HDL, Western Blot) | BBB permeability in vitro (hCMEC/D3 cells; 200 nM tPA, 4 hours of stimulation) |
| --- | --- | --- | --- | --- | --- | --- | --- | --- | --- | --- | --- | --- | --- | --- |
| AAT: 52 kD glycoprotein, natural inhibitor of neutrophil elastase | mild protective effect | – | – | – | – | – | – | – | – | – | – | – | – | – |
| tPA: recombinant tissue plasminogen activator, thrombolytic drug approved for stroke | – | 10 fold | Large edema | increased infarct volume | 86.05% | increased | increased infarct volume | 56.25% | increased | significantly increased IgG extravasation | decreased | induced a disorganization of intercellular junctions | induced an important release of fibronectin/fragments | neither tPA nor OGD were sufficient to induce increased BBB permeability |
